Results as given in paper PMC4783973, “Synthetic Human TLR9-LRR11 Peptide Attenuates TLR9 Signaling by Binding to and thus Decreasing Internalization of CpG Oligodeoxynucleotides” (International Journal of Molecular Sciences, 2016).

Key:
IκBα and ERK1/2 = conditions: LPS-induced; ref [22]; cited from earlier work
From the text: (§1) NF-κB is one of the most important inflammatory switches that comprise a series of transcription factors that regulate the expressions of various proinflammatory cytokines (IL-1, IL-6, IL-8 and TNF-α). NF-κB activation is depended on the degradation and phosphorylation of IκBα [12].

[1] = tested on: LPS-induced cytokine release; conditions: by decreasing both IκBα and ERK1/2 phosphorylation; ref [22]; cited from earlier work
ODN2006 = test: IAsys biosensor binding to immobilized biotinylated ODN2006; conditions: IAsys Plus biosensor; peptide 50 μM
Protocol: Figure 8 Synthetic peptide (SP) specifically binds ODN2006. (A) Binding curves generated by the IAsys biosensor. Biotinylated ODN2006 was immobilized on the surface of a streptavidin-coated cuvette. A series of concentration of SP (3.1, 6.3, 12.5, 25 or 50 μM) or unrelated peptide (URP) (50 μM) were added separately into the cuvette to generate the binding curves. Data were analyzed using FASTplot, and the dissociation equilibrium constant (KD) of SP was calculated using FASTfit; (B) Binding curves generated by the Biacore biosensor. Biotinylated ODN2006 was immobilized on a streptavidin-coated chip, and then a series of concentrations of SP (0.63, 1.25, 2.5, 5 or 10 μM) or URP (10 μM) were loaded separately to generate the binding curves. Data analysis and KD calculation were performed using the BIAevaluation software.
The affinity assay was firstly carried out using an IAsys Plus affinity biosensor (Thermo Labsystem, Altrincham, Cheshire, UK), according to our previous report. Biotinylated ODN2006 was immobilized on the surface of a streptavidin-coated cuvette according to the user manual. […] Binding curves were analyzed and visualized using FASTplot (Thermo), and the dissociation equilibrium constant (KD) of SP with ODN2006 was calculated using FASTfit (Thermo).

RAW264.7 cells [2] = test: FAM-2006 internalization within RAW264.7 cells, laser confocal scanning; assay type: cell-based; conditions: peptide 4.5 μM preincubated with FAM-2006 1.5 μM; 30 min; n = 100
Protocol: Figure 5 Synthetic peptide (SP) inhibited ODN2006 internalization, as assessed using laser confocal scanning (Scale bar = 20 μm). RAW264.7 cells (1 × 10^6 cells) grown on 2-cm glass bottom dishes were treated with normal medium, 1.5 μM of FAM-labeled ODN2006 (FAM-2006) that had been preincubated with SP (0, 0.5, 1.5 or 4.5 μM) or unrelated peptide (URP; 4.5 μM) at 37 °C for 15 min. After treatment for 30 min, cells were washed with warm phosphate buffered saline (PBS) and fixed with 4% (m/v) paraformaldehyde, then stained with DAPI (4′,6-diamidino-2-phenylindole) (blue). The intracellular FAM-2006 (green) was observed using a laser confocal microscope (A); Mean fluorescence intensity (MFI) values (B) and the percentages of cells with FAM-2006 dots (green fluorescence) (C) were calculated by the ZENlite 2012 software (n = 100). “**”, p < 0.01; “#”, p > 0.05 vs. FAM-2006 alone.
The RAW264.7 cell line was purchased from American Type Culture Collection (ATCC, Manassas, VA, USA). Cells were cultured in DMEM (high glucose) medium containing 10% FCS in a 37 °C humidified atmosphere with 5% CO2. Cells diluted with 0.4% trypan blue in phosphate-buffered saline (PBS, 0.1 mM, pH 7.2–7.4) were counted using a hemocytometer. […]

RAW264.7 cells [3] = test: TNF-α and IL-6 release from RAW264.7 cells, both cytokines stated together (ELISA); assay type: cell-based, mouse; conditions: peptide alone, without CpG ODN; 6 h
Protocol: Figure 1 Synthetic peptide (SP) decreased TNF-α and IL-6 release from RAW264.7 cells treated with CpG oligodeoxynucleotides (CpG ODN). RAW264.7 cells (4.0 × 10^5 cells) grown in 48-well plates were treated with 1.5 μM of ODN2006 or ODN107 preincubated with SP (0, 0.5, 1.5, or 4.5 μM) or unrelated peptide (URP) (4.5 μM) at 37 °C for 15 min. After incubation for 6 h, the supernatants were collected to detect TNF-α (A) and IL-6 (B) using enzyme-linked immunosorbent assay (ELISA) kits. Data from one of three independent experiments are shown (n = 4). “*”, p < 0.05 vs. ODN2006 or ODN107; “**”, p < 0.01 vs. ODN2006 or ODN107; “#”, p > 0.05 vs. ODN2006 or ODN107.
Experiments were performed as described in Figure 1. The concentrations of ODN2006, LPS, PAM3 and SP were 1.5 μM, 20 ng/mL, 5 μg/mL and 1.5 μM, respectively. Data from one of three independent experiments are shown (n = 3).
(§2) The RAW264.7 cell line was purchased from American Type Culture Collection (ATCC, Manassas, VA, USA). Cells were cultured in DMEM (high glucose) medium containing 10% FCS in a 37 °C humidified atmosphere with 5% CO2. Cells diluted with 0.4% trypan blue in phosphate-buffered saline (PBS, 0.1 mM, pH 7.2–7.4) were counted using a hemocytometer.
RAW264.7 cells (4.0 × 10^5 cells) were incubated in 48-well plates for 4 h, and supernatants were replaced with 0.4 mL of serum-free DMEM medium containing 1.5 μM of ODN2006 or ODN107, which had been preincubated with 0, 0.5, 1.5 or 4.5 μM of SP or 4.5 μM of URP at 37 °C for 15 min. After incubation for 6 h, the supernatants were collected to detect TNF-α and IL-6 concentrations using corresponding ELISA kits (eBioscience).

NF-κB p65 subunit = test: NF-κB activity assay, p65 subunit in nuclear extract of RAW264.7 cells (Trans^AM ELISA); assay type: cell-based; conditions: peptide alone 4.5 μM; 4 h; n = 3
Protocol: Figure 3 Synthetic peptide (SP) inhibited NF-κB activation induced by CpG oligodeoxynucleotides (CpG ODN) in RAW264.7 cells. RAW264.7 cells (5.0 × 10^6 cells) grown in six-well plates were treated with 1.5 μM of ODN2006 (A) or ODN107 (B) preincubated with SP (0, 0.5, 1.5, or 4.5 μM) or unrelated peptide (URP) (4.5 μM) at 37 °C for 15 min. After incubation for 4 h, the cells were collected to extract nuclear proteins. The p65 subunit was detected using enzyme-linked immunosorbent assay (ELISA) kits. Data from one of three independent experiments are shown (n = 3). “*”, p < 0.05 vs. ODN2006 or ODN107; “**”, p < 0.01 vs. ODN2006 or ODN107; “#”, p > 0.05 vs. ODN2006 or ODN107.
as §2
RAW264.7 cells (5.0 × 10^6 cells) were placed in six-well plates for 4 h, and the supernatants were then replaced with fresh medium containing 1.5 μM of ODN2006 or ODN107 that had been preincubated with SP (0, 0.5, 1.5, or 4.5 μM) or URP (4.5 μM) at 37 °C for 15 min. After incubation for 4 h, the cells were collected to extract nuclear proteins. Equal amounts of each sample were used to detect the DNA binding activity of the NF-κB p65 subunit using Trans^AM NF-κB ELISA kits (Active Motif), according to the manufacturer’s instructions.

[4] = tested on: IκBα phosphorylation and NF-κB activation; conditions: ref [19],[20]; cited from earlier work
From the text: as §1

[5] = tested on: CpG ODN-induced cytokine release; conditions: ref [19],[20]; cited from earlier work
From the text: CpG ODN-induced diseases, such as sepsis and some autoimmune disorders, are triggered by uncontrolled release of proinflammatory cytokines, e.g., TNF-α and IL-6 [18]. […] Herein, we firstly evaluated the inhibitory effect of SP on CpG ODN-induced cytokine release in the cellular tests. Tw ... || NF-κB is one of the most important inflammatory switches that comprise a series of transcription factors that regulate the expressions of various proinflammatory cytokines (IL-1, IL-6, IL-8 and TNF-α). NF-κB activation is depended on the degradation and phosphorylation of IκBα [12].

COc1ccc(/C=C/c2cc(O)cc(O)c2)cc1 [desoxyrhapontigenin]
effect on IκBα and ERK1/2 phosphorylation (IκBα and ERK1/2): decreasing both of IκBα and ERK1/2 phosphorylation | effect on LPS-induced cytokine release [1]: inhibited LPS-induced cytokine release

LQTLDLRDNALTTIHFIPSIPD [URP, unrelated peptide derived from LRR14 of human TLR5, used as negative control]
binding response to ODN2006 (ODN2006): no such response | mean fluorescence intensity (MFI) produced by FAM-2006 within the cells (RAW264.7 cells [2]): no such effect | effect of peptide alone on TNF-α and IL-6 release (RAW264.7 cells [3]): no influence on cytokines release | effect of peptide alone on p65 activation (NF-κB p65 subunit): no effect

kukoamine B
effect on IκBα phosphorylation and NF-κB activation [4]: inhibitors of IκBα phosphorylation and NF-κB activation | effect on CpG ODN-induced cytokine release [5]: inhibitors of CpG ODN-induced cytokine release | effect on proinflammatory cytokines [5]: inhibited proinflammatory cytokines
